IC50 and EC50 data for 9 compounds are collected here from patent US9561228B2 (Celgene Avilomics Research, Inc., priority 2013, dated 2017).

One assay deals with T1, MEK1 activated ERK1 (Homo sapiens, UniProt P27361).
T1 construct: purchased Millipore (Billerica, Mass.) 14-439-K
In words: Omnia continuous-read kinase assay for potency against MEK1 activated ERK1. Format: biochemical. The gist of the method:
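Apparent IC50 came from initial reaction slopes (RFU vs time) plotted against log inhibitor with a variable-slope fit. Reactions were started with ERK1 (4 nM final) added to 50 μM ATP, roughly at its appKM, and 10 μM Sox-conjugated ST17 peptide in 20 mM Tris pH 7.5, 5 mM MgCl2. Fluorescence was monitored every 71 seconds.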

The subject of assay [1] is ERK1/2 phosphorylation of p90RSK in A375 cells. In words: Detection of total and phosphor-RSK by MSD ELISA (A375). Format: cell-based. The conditions noted are these: Homo sapiens, A-375, read-out: ERK1/ERK2 PRSK A375 EC50. The procedure: Detection of Total and Phosphor-RSK by MSD ELISA (A375)
(§1) The protocol below describes an assay to measure the kinase activity of ERK1/2 to phosphorylate a substrate, p90RSK, in the presence or absence of a test compound.
A375 cells were grown in DMEM/10% FBS. Twenty four hours prior to the assay, 50,000 cells per well were plated in a 96 well flat bottom plate. Once cells attached to the plate, the medium was replaced with 100 ul of DMEM/0.1% FBS. Cells were cultured overnight in an incubator at 37° C.
Compound stock solutions of 10 mM in DMSO were prepared. 1000× dilutions were then prepared in DMSO. 1 uL of DMSO solution was then transferred to 1 ml DMEM/0.1% FBS in a deep well plate. Cell plate media was discarded, followed by addition of 100 uL of the compound-containing media. The preparation was incubated at 37° C. for 2 hrs.
Cell lysates were prepared as described below.
pRSK or Total RSK MSD Assay
MSD plates: Blank MSD plates were coated with 30 uL capture antibody (BD 610226) at a final concentration of 1 ug/mL in PBS. Both pRSK and total RSK MSD assays used the same capture antibody at the same concentration. Antibody stock concentration was 250 ug/mL. Once antibody solution was added to the MSD plate, the sides were tapped to be certain it was coated completely (visual inspection). It was then covered and placed at 4° C. overnight on a level surface.
Block MSD Plate: The coating antibody was removed and the plate was washed on a plate washer in MSD wash buffer. The last bit of wash solution was tapped out and 150 uL/well of 3% BSA in MSD wash buffer was added in. The preparation was placed on a shaker at room temperature for at least an hour.
Add samples: Media was removed from compound-treated cells and replaced with 55 uL/well MSD cell lysis buffer containing protease and phosphotase I & II inhibitors. The preparation was incubated on a shaker in a cold room for 30-45 min. The blocked MSD plate was washed a on plate washer, tapping out the last bit of wash solution, followed by addition of 50 uL (of the 55 ul) cell lysate in a well-well transfer. The preparation was covered and incubated on a shaker at room temp for 2 hours. The lysate was removed, washed on a plate washer 3 times, and the last bit of wash buffer was tapped out and replace with 25 uL/well detection antibody (described below).
For pRSK detection, a pRSK antibody stock of 21 ug/mL was prepared as follows: 1 ug/mL pRSK Ser380 antibody (Cell Signaling Technology, Cat. #9335)+1:750 anti-rabbit SulfoTag (Mesoscale Discovery, Cat. # R32AB-1) in 1% BSA in MSD wash buffer.
(§2) For total RSK detection, a total RSK antibody stock of 200 ug/mL was prepared as follows: 1 ug/mL total RSK (Santa Cruz sc-231G) antibody+1:750 anti-goat SulfoTag (from MSD, R32AG-1) in 1% BSA in MSD wash buffer.
The plate was incubated for 1 hr at room temperature on a shaker, followed by three washings. The last bit of wash buffer was tapped out. 150 uL/well 1×MSD Read buffer was added and the plate was then analyzed.

Assay [2] deals with ERK1/2 phosphorylation of p90RSK in HCT116 cells. In words: Detection of total and phospho-RSK by MSD ELISA (HCT116). Format: cell-based. The conditions noted are these: Homo sapiens, HCT-116, read-out: ERK1/ERK2 PRSK HCT116 EC50. The procedure: Detection of Total and Phospho-RSK by MSD ELISA (HCT116)
as §1
HCT116 cells were grown in RPMI/10% FBS. Prior to the assay, 50,000 cells per well were plated in a 96 well flat bottom plate. Cells were cultured overnight in an incubator at 37° C.
Compound stocks were 10 mM in DMSO. A 1000× dilution was made in DMSO. 1 uL of the DMSO solution was transferred to 1 ml RPMI/10% FBS in a deep well plate. Media in the cell plate was discarded, and 100 uL of the compound-containing media was added. The preparation was incubated at 37° C. for 2 hrs.
Preparation of cell lysates are described below.
pRSK or total RSK MSD Assay
MSD plates: Blank MSD plates were coated with 30 uL capture antibody (BD 610226) at a final concentration of 1 ug/mL in PBS. Both pRSK and total RSK MSD assays used the same capture antibody at the same concentration. Antibody stock concentration was 250 ug/mL. Once antibody solution was added to MSD plate, the sides were tapped to be certain it was coated completely (visual inspection). It was then covered and placed at 4° C. overnight on a level surface.
Block MSD Plate: The coating antibody was removed and the plate was washed on a plate washer in MSD wash buffer. The last bit of wash solution was tapped out and 150 uL/well 3% BSA (MSD Blocker A) in MSD wash buffer was added. The preparation was placed on a shaker at room temperature for at least an hour.
Add samples: Media was removed from compound-treated cells and replaced with 55 uL/well MSD cell lysis buffer containing protease and phosphotase I & II inhibitors. The preparations was incubate on a shaker in a cold room for 30-45 min. The blocked MSD plate was washed on a plate washer, and the last bit of wash solution was tapped out. Next was added 50 uL (of the 55 uL) cell lysate in a well-well transfer. The preparation was covered and incubated on shaker at room temp for 2 hours. The lysate was then removed and washed on plate washer 3 times. The last bit of wash buffer was then tapped out and replaced with 25 uL/well detection antibody (described below).
For pRSK detection, a pRSK antibody stock of 21 ug/mL was prepared as follows: 1 ug/mL pRSK Ser380 antibody (Cell Signaling Technology, Cat. #9335)+1:750 anti-rabbit SulfoTag (from MSD, R32AB-1) in 1% BSA in MSD wash buffer.
as §2
The plate was incubated for 1 hr at room temperature on a shaker, followed by three washes. The last bit of wash buffer was tapped out. Next, 150 uL/well 1×MSD Read buffer was added and the plate was analyzed by the MSD reader.

In assay [3] the test system is ERK1/2 phosphorylation of p90RSK in HT29 cells. In words: pRSK MSD Assay in HT29 cells. As to conditions: Homo sapiens, HT-29, read-out: ERK1/ERK2 PRSK MSD HT29 EC50. Format: cell-based. The method, boiled down:
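Phospho-RSK level, read by electrochemiluminescence on RSK-antibody-coated MSD plates with a phospho-RSK/Sulfo-tag detection pair, reports cellular ERK1/2 activity. HT29 cells, kept overnight in 0.1% FBS medium, were exposed to compound for 120 min at 37° C before lysis.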

Molecules are shown by their SMILES. Where two headings read alike, the source gives them in different places.

T1 sequence (P27361 whole entry): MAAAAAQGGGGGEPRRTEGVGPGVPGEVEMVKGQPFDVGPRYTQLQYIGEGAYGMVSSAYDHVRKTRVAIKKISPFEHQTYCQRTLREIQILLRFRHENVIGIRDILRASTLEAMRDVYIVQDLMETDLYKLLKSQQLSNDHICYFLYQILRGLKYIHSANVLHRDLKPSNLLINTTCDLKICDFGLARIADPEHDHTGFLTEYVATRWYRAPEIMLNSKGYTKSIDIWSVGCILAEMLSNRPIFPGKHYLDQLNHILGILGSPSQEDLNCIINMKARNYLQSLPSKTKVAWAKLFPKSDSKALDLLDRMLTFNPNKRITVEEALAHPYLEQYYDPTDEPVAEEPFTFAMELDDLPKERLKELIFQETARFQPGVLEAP

Regarding `C=CC(=O)Nc1cc(C)ccc1Nc1nc(N[C@H]2CCN(S(=O)(=O)C=C)C2)ncc1C(F)(F)F` [Compound I-279, (S)—N-(5-Methyl-2-((5-(trifluoromethyl)-2-((1-(vinylsulfonyl)pyrrolidin-3-yl)amino)pyrimidin-4-yl)amino)phenyl)acrylamide], at MEK1 activated ERK1 (MEK1 activated ERK1, ATP at KM, read-out: ERK1 Omnia WT ATP KM IC50), the IC50 lay in the range of 501 to 999 nM. Also, the EC50 in assay [1] and in assay [2] was over 1000 nM throughout.
In the case of `C=CC(=O)Nc1cc(C)ccc1Nc1nc(Nc2cc(OC)nn2C)ncc1C(F)(F)F` [Compound I-430, N-(2-((2-((3-methoxy-1-methyl-1H-pyrazol-5-yl)amino)-5-(trifluoromethyl)pyrimidin-4-yl)amino)-5-methylphenyl)acrylamide], the IC50 on MEK1 activated ERK1 (ATP at KM, WT) lay in the range of 501 to 999 nM. Moreover, the EC50 in assay [1] and in assay [2] was 501 to 999 nM each time.
`C=CC(=O)Nc1cc(C)ccc1Nc1nc(Nc2cc(OC)ncc2CF)ncc1C(F)(F)F` [Compound I-429, N-(2-((2-((5-(fluoromethyl)-2-methoxypyridin-4-yl)amino)-5-(trifluoromethyl)pyrimidin-4-yl)amino)-5-methylphenyl)acrylamide]: the IC50 at MEK1 activated ERK1 (ATP at KM, WT) was over 1000 nM. The figures for the EC50 in assay [1] and in assay [2] were 101 to 500 nM and 501 to 999 nM, respectively.
For `C#CCOc1cc(C)c(Nc2ncc(C(F)(F)F)c(Nc3ccc(C)cc3NC(=O)C=C)n2)cc1C(N)=O` [Compound I-362, 5-((4-((2-acrylamido-4-methylphenyl)amino)-5-(trifluoromethyl)pyrimidin-2-yl)amino)-4-methyl-2-(prop-2-yn-1-yloxy)benzamide], the EC50 in assay [1] is 501 to 999 nM; in assay [2], over 1000 nM; in assay [3] it was 501 to 999 nM.
As for `C=CC(=O)Nc1cc(C)ccc1Nc1nc(Nc2cc(OC)ncc2CO)ncc1C(F)(F)F` [Compound I-428, N-(2-((2-((5-(hydroxymethyl)-2-methoxypyridin-4-yl)amino)-5-(trifluoromethyl)pyrimidin-4-yl)amino)-5-methylphenyl)acrylamide], at MEK1 activated ERK1 (ATP at KM, WT), the IC50 is over 1000 nM. The EC50 in assay [1] and in assay [2] was 101 to 500 nM throughout.
On to `C=CC(=O)Nc1cc(OCC(=O)N2CCN(S(C)(=O)=O)CC2)ccc1Nc1nc(Nc2cc(OC)ncc2C)ncc1C(F)(F)F` [Compound I-405, N-(2-((2-((2-methoxy-5-methylpyridin-4-yl)amino)-5-(trifluoromethyl)pyrimidin-4-yl)amino)-5-(2-(4-(methylsulfonyl)piperazin-1-yl)-2-oxoethoxy)phenyl)acrylamide], for which the EC50 is 101 to 500 nM in assay [1], under 100 nM in assay [2] and under 100 nM in assay [3].
As for `C=CC(=O)Nc1cc(C)ccc1Nc1nc(Nc2cc(OC)ncc2OC)ncc1C(F)(F)F` [Compound I-406, N-(2-((2-((2,5-dimethoxypyridin-4-yl)amino)-5-(trifluoromethyl)pyrimidin-4-yl)amino)-5-methylphenyl)acrylamide], the EC50 in assay [1], in assay [2] and in assay [3] was 101 to 500 nM in each case.
In the case of `C=CC(=O)Nc1cc(OC)ccc1Nc1nc(Nc2cc(OC)nc(N3CCN(C(C)=O)CC3)c2)ncc1Cl` [Compound I-297, N-(2-((2-((2-(4-acetylpiperazin-1-yl)-6-methoxypyridin-4-yl)amino)-5-chloropyrimidin-4-yl)amino)-5-methoxyphenyl)acrylamide], the EC50 in assay [1] is over 1000 nM; in assay [2], under 100 nM; in assay [3], under 100 nM.
Take `C=CC(=O)Nc1cc(C)ccc1Nc1nc(Nc2cc(OC)nc(N3CCC(O)CC3)c2)ncc1C(F)(F)F` [Compound I-332, N-(2-((2-((2-(4-hydroxypiperidin-1-yl)-6-methoxypyridin-4-yl)amino)-5-(trifluoromethyl)pyrimidin-4-yl)amino)-5-methylphenyl)acrylamide]: the EC50 in assay [1] was 101 to 500 nM; in assay [2], 101 to 500 nM; in assay [3], under 100 nM.
